These compounds were tested against T1, human OX2 receptor (Homo sapiens, UniProt O43614) (assay: Measurement of orexin type 2 receptor agonist activity (Fluo-4 calcium fluorescence, FDSS)). Details: compound at 3 μM; CHO cells forcibly expressing human OX2 receptor; DMSO = 0%, orexin A (human) 10 nM = 100%.
T1 construct: expressed in transfected cells
T1 sequence (O43614 1-444): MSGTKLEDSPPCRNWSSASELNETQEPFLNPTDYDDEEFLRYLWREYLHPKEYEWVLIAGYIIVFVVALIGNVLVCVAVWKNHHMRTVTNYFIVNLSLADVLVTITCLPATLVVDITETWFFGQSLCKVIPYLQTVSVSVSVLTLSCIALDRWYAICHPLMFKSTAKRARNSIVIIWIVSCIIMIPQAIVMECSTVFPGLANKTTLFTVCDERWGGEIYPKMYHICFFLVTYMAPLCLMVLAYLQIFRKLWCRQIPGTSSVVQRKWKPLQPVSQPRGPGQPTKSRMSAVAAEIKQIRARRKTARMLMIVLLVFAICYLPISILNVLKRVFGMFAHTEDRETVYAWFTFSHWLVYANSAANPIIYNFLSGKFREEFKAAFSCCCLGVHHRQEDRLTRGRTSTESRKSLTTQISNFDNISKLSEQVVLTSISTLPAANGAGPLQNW
Format: cell-based
Text: Experimental Example 1: Obtainment of Cell Stably Expressing Human Orexin Type 2 Receptor (hOX2R)
To obtain a cell clone stably expressing human orexin type 2 receptor, human orexin type 2 receptor cDNA was inserted into pcDNA3.1(+) plasmid vector (Invitrogen), and a plasmid DNA for expression of human orexin type 2 receptor (pcDNA3.1(+)/hOX2R) was cloned. The plasmid DNA was introduced into CHO-dhfr cell by an electroporation method, and human orexin type 2 receptor expressing clone cells were obtained by limiting dilution method by using G418 drug resistance as a selection marker.
Experimental Example 2: Measurement of Orexin Type 2 Receptor Agonist Activity
CHO cells forcibly expressing human OX2 receptor were seeded in each well of 384 well black transparent bottom plate (BD Falcon) at 7,500 cells/well, and cultured for one day in a 5% CO2 incubator at 37° C. After removal of the medium in the cell plate, assay buffer A containing a calcium indicator (HESS (Life Technologies), 20 mM HEPES (Life Technologies), 0.1% BSA (Wako Pure Chemical Industries, Ltd.), 2.5 μg/mL Fluo-4 AM (DOJINDO Chemical), 0.08% Pluronic F127 (DOJINDO Chemical), 1.25 mM probenecid (DOJINDO Chemical)) was added at 30 μL/well. The plate was stood for 30 min in a 5% CO2 incubator at 37° C., and further stood at room temperature for 30 min. A test compound prepared by diluting with assay buffer B (HESS, 20 mM HEPES, 0.1% BSA) was added at 10 μL/well, and the fluorescence value was measured by FDSSμCELL (Hamamatsu Photonics K.K.) every one sec for 1 min, and thereafter every two sec for 1 min 40 sec. The activity (%) of the test compound was calculated assuming that variation in the fluorescence value when DMSO was added instead of the test compound was 0% […], and variation in the fluorescence value when orexin A (human) (PEPTIDE INSTITUTE, INC.) was added at the final concentration of 10 nM was 100% […]. The activity of each compound at the concentration of 3 μM was shown below.

Row | OX2R agonist activity (3 μM, %) [%] | Structure (SMILES)
1 | 95 | COc1ccccc1S(=O)(=O)Nc1ccnc(O[C@@H]2CN(C(=O)c3cc(C)ccc3C)C[C@H]2OC)c1 (relative stereo) [Example 101, trans-N-(2-((1-(2,5-dimethylbenzoyl)-4-methoxypyrrolidin-3-yl)oxy)pyridin-4-yl)-2-methoxybenzenesulfonamide]
2 | 80 | COc1ccccc1S(=O)(=O)Nc1cccc(O[C@@H]2CN(C(=O)c3cc(C)ccc3C)C[C@H]2OC)c1C (relative stereo) [Example 103, trans-N-(3-((1-(2,5-dimethylbenzoyl)-4-methoxypyrrolidin-3-yl)oxy)-2-methylphenyl)-2-methoxybenzenesulfonamide]
3 | 94 | COc1ccccc1S(=O)(=O)Nc1cc(C)cc(O[C@@H]2CN(C(=O)c3cc(C)ccc3C)C[C@H]2OC)c1 (relative stereo) [Example 105, trans-N-(3-((1-(2,5-dimethylbenzoyl)-4-methoxypyrrolidin-3-yl)oxy)-5-methylphenyl)-2-methoxybenzenesulfonamide]
4 | 104 | COc1ccccc1S(=O)(=O)Nc1cncc(O[C@@H]2CN(C(=O)c3cc(C)ccc3C)C[C@H]2OC)c1 (relative stereo) [Example 106, trans-N-(5-((1-(2,5-dimethylbenzoyl)-4-methoxypyrrolidin-3-yl)oxy)pyridin-3-yl)-2-methoxybenzenesulfonamide]
5 | 77 | COc1ccccc1S(=O)(=O)Nc1cccc(O[C@@H]2CN(C(=O)c3cc(C)ccc3C)C[C@H]2F)c1 (relative stereo) [Example 107, trans-N-(3-((1-(2,5-dimethylbenzoyl)-4-fluoropyrrolidin-3-yl)oxy)phenyl)-2-methoxybenzenesulfonamide]
6 | 52 | CO[C@@H]1CN(C(=O)c2c(C)cccc2C)C[C@H]1Oc1cccc(NS(=O)(=O)c2sccc2Cl)c1F (relative stereo) [Example 111, trans-3-chloro-N-(3-((1-(2,6-dimethylbenzoyl)-4-methoxypyrrolidin-3-yl)oxy)-2-fluorophenyl)thiophene-2-sulfonamide]
7 | 60 | COc1ccccc1S(=O)(=O)Nc1cccc(O[C@@H]2CN(C(=O)c3cc(C)ccc3C)C[C@H]2O)c1 (relative stereo) [Example 114, trans-N-(3-((1-(2,5-dimethylbenzoyl)-4-hydroxypyrrolidin-3-yl)oxy)phenyl)-2-methoxybenzenesulfonamide]
8 | 66 | COc1ccccc1S(=O)(=O)Nc1cccc(O[C@@H]2CN(C(=O)c3cc(C)ccc3C)C[C@H]2OC)c1Cl (relative stereo) [Example 117, trans-N-(2-chloro-3-((1-(2,5-dimethylbenzoyl)-4-methoxypyrrolidin-3-yl)oxy)phenyl)-2-methoxybenzenesulfonamide]
9 | 57 | COc1ccccc1S(=O)(=O)Nc1cccc(C[C@@H]2CN(C(=O)c3cc(C)ccc3C)C[C@H]2OC)c1 (relative stereo) [Example 119, trans-N-(3-((1-(2,5-dimethylbenzoyl)-4-methoxypyrrolidin-3-yl)methyl)phenyl)-2-methoxybenzenesulfonamide]
10 | 67 | COc1ccccc1S(=O)(=O)Nc1cccc(O[C@@H]2CN(C(=O)c3cc(C)ccc3C)C[C@H]2C#N)c1 (relative stereo) [Example 126, trans-N-(3-((4-cyano-1-(2,5-dimethylbenzoyl)pyrrolidin-3-yl)oxy)phenyl)-2-methoxybenzenesulfonamide]

More lines, now with the values behind:

Row | Structure (SMILES) | OX2R agonist activity (3 μM, %) [%]
11 | COc1ccccc1S(=O)(=O)Nc1cccc(O[C@@H]2CN(C(=O)c3cc(C)ccc3C)C[C@H]2OC)c1 (relative stereo) [Example 56, trans-N-(3-((1-(2,5-dimethylbenzoyl)-4-methoxypyrrolidin-3-yl)oxy)phenyl)-2-methoxybenzenesulfonamide] | 101
12 | COc1ccc(-c2cccc(C(=O)N(C)C)c2)cc1S(=O)(=O)Nc1cccc(O[C@@H]2CN(C(=O)c3cc(C)ccc3C)C[C@@H]2OC)c1 (relative stereo) [Example 59, cis-3′-((3-((1-(2,5-dimethylbenzoyl)-4-methoxypyrrolidin-3-yl)oxy)phenyl)sulfamoyl)-4′-methoxy-N,N-dimethylbiphenyl-3-carboxamide] | 103
13 | COc1ccc(-c2cccc(C(=O)N(C)C)c2)cc1S(=O)(=O)Nc1cccc(O[C@@H]2CN(C(=O)c3cc(C)ccc3C)C[C@H]2OC)c1 (relative stereo) [Example 60, trans-3′-((3-((1-(2,5-dimethylbenzoyl)-4-methoxypyrrolidin-3-yl)oxy)phenyl)sulfamoyl)-4′-methoxy-N,N-dimethylbiphenyl-3-carboxamide] | 105
14 | CO[C@@H]1CN(C(=O)c2cc(C)ccc2C)C[C@H]1Oc1cccc(NS(=O)(=O)c2ccccc2)c1 (relative stereo) [Example 65, trans-N-(3-((1-(2,5-dimethylbenzoyl)-4-methoxypyrrolidin-3-yl)oxy)phenyl)benzenesulfonamide] | 78
15 | CCCS(=O)(=O)Nc1cccc(O[C@@H]2CN(C(=O)c3cc(C)ccc3C)C[C@H]2OC)c1 (relative stereo) [Example 66, trans-N-(3-((1-(2,5-dimethylbenzoyl)-4-methoxypyrrolidin-3-yl)oxy)phenyl)propane-1-sulfonamide] | 76
16 | COc1ccccc1S(=O)(=O)Nc1ccc(F)c(O[C@@H]2CN(C(=O)c3cc(C)ccc3C)C[C@H]2OC)c1 (relative stereo) [Example 86, trans-N-(3-((1-(2,5-dimethylbenzoyl)-4-methoxypyrrolidin-3-yl)oxy)-4-fluorophenyl)-2-methoxybenzenesulfonamide] | 80
17 | COc1ccccc1S(=O)(=O)Nc1cccc(O[C@@H]2CN(C(=O)c3cc(C)ccc3C)C[C@H]2OC)c1F (relative stereo) [Example 87, trans-N-(3-((1-(2,5-dimethylbenzoyl)-4-methoxypyrrolidin-3-yl)oxy)-2-fluorophenyl)-2-methoxybenzenesulfonamide] | 103
18 | COc1ccccc1S(=O)(=O)Nc1cccc(O[C@@H]2CN(C(=O)c3cc(C)ccc3C)C[C@H]2C)c1 (relative stereo) [Example 92, trans-N-(3-((1-(2,5-dimethylbenzoyl)-4-methylpyrrolidin-3-yl)oxy)phenyl)-2-methoxybenzenesulfonamide] | 102
19 | CC[C@@H]1CN(C(=O)c2cc(C)ccc2C)C[C@H]1Oc1cccc(NS(=O)(=O)c2ccccc2OC)c1 (relative stereo) [Example 93, trans-N-(3-((1-(2,5-dimethylbenzoyl)-4-ethylpyrrolidin-3-yl)oxy)phenyl)-2-methoxybenzenesulfonamide] | 80
20 | COc1ccccc1S(=O)(=O)Nc1cc(F)cc(O[C@@H]2CN(C(=O)c3cc(C)ccc3C)C[C@H]2OC)c1 (relative stereo) [Example 100, trans-N-(3-((1-(2,5-dimethylbenzoyl)-4-methoxypyrrolidin-3-yl)oxy)-5-fluorophenyl)-2-methoxybenzenesulfonamide] | 102
